Test results: patent US20060029546A1, “Materials and methods for identifying anti-schizophrenic agents” (deCODE Genetics, Inc., priority 2004, published 2006)

Columns and labels:
[1] = test system: Fyn; experiment: Fyn phosphorylation in HEK293 cells stably expressing ErbB4 and Fyn-V5 (Western blot); type: cell-based
Experimental: (§1) To determine whether NRG1-induced activation of ErbB4 leads to Fyn phosphorylation, NRG1 exposure of HEK293 cells stably expressing ErbB4 and Fyn-V5 were activated with 7.2 nM NRG1 (R&D Systems; Minneapolis, Minn.) for 10 minutes and lysed using RIPA buffer. […] There was no change in Fyn Tyr531 phosphorylation. […] Fyn is activated either by dephophorylation of Tyr531 with loss of the SH2 domain interaction, or through displacement of the SH2 domain by a second tyrosine phosphorylated binding partner allowing auto-phosphorylation on the Fyn activation loop residue Tyr420. Alternatively, Fyn can be phosphorylated on Tyr420 and activated directly by a second kinase. Thus, the NRG1-stimulated increase in Fyn Tyr420 phosphorylation may be through stimulation of Fyn auto-phosphorylation, through phosphorylation of Fyn by ErbB4, or through phosphorylation of Fyn by an ErbB4 activated tyrosine kinase other than Fyn.
These alternatives were distinguished by applying PP2 (25 nM; Calbiochem, San Diego, Calif.) a relatively selective Src-family kinase inhibitor, to inhibit Fyn while ErbB4 signaling was stimulated with NRG1. […] Fyn was phosphorylated at a low level on Tyr420 under basal conditions. […] After NRG1 stimulation, an increase in Fyn Tyr420 phosphorylation was seen, even under conditions in which PP2 was used to inhibit p59 Fyn autophosphorylation. […]

[2] = test system: Fyn; conditions: cited from earlier work
[3] = test system: ErbB4; experiment: ErbB4 tyrosine phosphorylation in HEK293 cells (Western blot); type: cell-based; conditions: for NRG1-induced ErbB4 tyrosine phosphorylation: cells expressing ErbB4 and Fyn, inhibitor 25 nM
Experimental: as §1
Thus, NRG1-induced ErbB4 phosphorylation under conditions in which Fyn and related Src-family kinases were inhibited by PP2 (selective Src-family kinase inhibitor described above). […] This may result in the creation of additional SH2 domain docking sites, thus leading to further activation of Fyn as part of a positive feedback mechanism involving NRG1, ErbB4 and Src-family kinases.

[4] = test system: NMDA receptor subunit NR2B; experiment: NR2B Tyr1472 phosphorylation in mouse hippocampal lysates (Western blot); type: in vivo
Experimental: To further characterize components of the NRG1/ErbB4 signaling pathway a-ErbB4 co-immunoprecipitates from mouse brain hippocampus were analyzed. […] Hippocampus tissue was isolated by manual dissection and homogenized in DOC buffer (20 μM ZnCl2, 50 mM Tris pH 9.0, 1% DOC) (1 ml/50 mg of tissue) containing protease and phosphatase inhibitors as above. 25U Benzonase Nuclease per 1 ml of lysate were added to each sample during a 60 minute incubation at 4° C. For SDS-PAGE and Western blot, sample protein content was determined using a BCA Protein Assay Reagent Kit (Pierce, Rockford, Ill.), adjusted to a final concentration of 2 μg/μl total protein in 1×SDS-PAGE sample buffer, and then 20-25 μg of protein was loaded per gel lane. For immunoprecipitation, samples were adjusted to a final concentration of 2 μg/μl total protein in DOC buffer. […]
It was hypothesized that NRG1^+/− and ErbB4^+/− mutant mice might show altered regulation of NMDA receptor subunit NR2B Tyr1472 phosphorylation related to their abnormal behavioral phenotype. Hippocampal lysates were analyzed as described in Example 1. It was determined that Tyr1472 of NR2B was hypo-phosphorylated in hippocampal lysates from 9 month old NRG1^+/− or ErbB4^+/− mutant mice as compared to age and sex matched C57B1/6 control mice (FIG. 3). […]

[5] = test system: NRG1+/− mutant mice; experiment: Open field test; type: in vivo, mouse; conditions: single exposure
Experimental: NRG1 hypomorphic mutant mice (NRG1^+/−) are heterozygotic mice that have a mutant NRG1 allele in which the NRG1 exon encoding the transmembrane domain is disrupted in the heterozygote. These mice develop normally and breed well. […] Treatment of the NRG1^+/−mice with a clozapine (1 mg/kg), an atypical antipsychotic drug commonly used to treat schizophrenia, for 25 minutes prior to testing reversed the behavioral abnormality. […] In addition, it is known that the NRG1^+/− had 16% fewer functional NMDA receptors overall as compared to litter-mate controls as determined by MK-801 (NMDA antagonist) binding studies on forebrain homogenates (Steffanson et al., Am. J. Hum. Genet. 72: 83-7, 2003). Therefore, these mice are relevant as an in vivo model for schizophrenia.
Behavioral abnormality of NRG1^+/− mutant mice observed in the open field test is reversible with clozapine at a dose of 1 mg/kg i.p. The activity level of wild-type litter mate controls is not affected by that dose of clozapine. Thus, clozapine is not simply sedating at 1 mg/kg i.p., but has a selective effect on the behavioral abnormality of NRG1^+/− mutant mice. Reversal of the behavioral abnormality occurred rapidly within 25 minutes of a single exposure to clozapine.

Compound | basal Fyn Tyr420 phosphorylation ([1]; basal conditions, 24 hour preincubation, 25 nM) | IC50 ([2]; read-out: Fyn inhibition IC50) [nM] | NRG1 induced tyrosine phosphorylation ([3]; HEK293 cells expressing only ErbB4) | ErbB4 basal phosphorylation ([3]; absence of NRG1) | NRG1-induced ErbB4 tyrosine phosphorylation [3] | Fyn phosphorylation ([1]; control compound) | effect on Fyn ([2]; control kinase inhibitor) | increase of NR2B Tyr1472 phosphorylation ([4]; NRG1+/− mutant mice, 1 mg/kg i.p., 25 minutes after injection, normalized against total NR2B) | NR2B Tyr1472 phosphorylation ([4]; wild-type mice, same dose) | time to reversal of the behavioral abnormality [5] [min]
CC(C)(C)n1nc(-c2ccc(Cl)cc2)c2c(N)ncnc21 [PP2] | reduced | […] | no effect | no effect | greatly reduced |  |  |  |  | 
Nc1ncnc2c1cnn2-c1ccccc1 [PP3] |  |  |  |  | no effect | no effect | no effect on Fyn |  |  | 
CN1CCN(C2=Nc3cc(Cl)ccc3Nc3ccccc32)CC1 [clozapine] |  |  |  |  |  |  |  | 2.5-3 fold | no effect | ≤ 25
